Holding throughout (type): biochemical
One experiment addresses T1, Ab1 (h) (Homo sapiens, UniProt P00519).
T1 construct: purchased Eurofins
In words: Radioisotope labeling kinase assay (Eurofins), Ab1. Particulars: 1 μM compound; read-out: Inhibitory activity per unit concentration/Activity % Ab1 (h). As to the method: (§1) An activity to a human recombinant protein kinase of a series of compounds was determined by a radioisotope labeling method, which was provided by Eurofins Company. A compound to be detected was mixed with a corresponding protein kinase buffer (20 mM propyl sulfonate (MOPS, […].), 1 mM EDTA, 0.10 β-mercaptoethanol, 0.010 Brij-35, […], and 1 mg/mL BSA), the mixture was added into a reaction system (100 μM reaction substrate […], 8 mM MOPS with a pH value of 7.0, 10 mM MgAcetate, 0.2 mM EDTA, and a certain concentration of γ-^33P-ATP). After adding an MgATP composite solution, the reaction was started at room temperature for 40 minutes, and the reaction was terminated by adding 5 μl of […] solution. Then, 10 μl of reaction solution was dropwise added onto a filter and washed with 75 mM phosphoric acid solution for three times, 5 minutes each time, then washed with methanol once again, and dried and subjected to scintillation counting.

The target of a further experiment is T2, Flt3 (h) (Homo sapiens, UniProt P36888).
T2 construct: purchased Eurofins
T2 sequence (P36888 27-993): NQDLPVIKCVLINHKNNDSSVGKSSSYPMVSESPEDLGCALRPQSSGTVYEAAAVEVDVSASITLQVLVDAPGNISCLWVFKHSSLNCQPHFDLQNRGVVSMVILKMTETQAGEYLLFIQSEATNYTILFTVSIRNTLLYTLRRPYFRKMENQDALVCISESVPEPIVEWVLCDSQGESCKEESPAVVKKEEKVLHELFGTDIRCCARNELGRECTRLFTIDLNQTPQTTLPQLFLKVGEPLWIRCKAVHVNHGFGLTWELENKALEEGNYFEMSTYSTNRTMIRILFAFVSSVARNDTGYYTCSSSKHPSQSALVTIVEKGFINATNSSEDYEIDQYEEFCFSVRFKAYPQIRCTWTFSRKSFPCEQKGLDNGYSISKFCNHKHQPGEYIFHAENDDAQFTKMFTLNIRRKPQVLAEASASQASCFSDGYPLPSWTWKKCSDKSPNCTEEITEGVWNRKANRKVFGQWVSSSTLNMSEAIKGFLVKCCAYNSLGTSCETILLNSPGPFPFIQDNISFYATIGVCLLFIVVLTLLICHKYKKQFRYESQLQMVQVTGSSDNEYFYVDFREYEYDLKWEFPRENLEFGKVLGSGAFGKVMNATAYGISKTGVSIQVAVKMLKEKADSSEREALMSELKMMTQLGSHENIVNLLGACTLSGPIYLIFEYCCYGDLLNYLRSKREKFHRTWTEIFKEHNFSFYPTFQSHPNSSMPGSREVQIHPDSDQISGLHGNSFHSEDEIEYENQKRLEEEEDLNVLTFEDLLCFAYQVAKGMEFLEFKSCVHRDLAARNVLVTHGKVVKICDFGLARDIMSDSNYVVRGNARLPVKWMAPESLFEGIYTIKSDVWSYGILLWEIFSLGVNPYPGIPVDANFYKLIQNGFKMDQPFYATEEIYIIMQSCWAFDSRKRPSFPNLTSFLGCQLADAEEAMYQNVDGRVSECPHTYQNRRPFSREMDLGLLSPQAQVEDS
Kind of experiment: Radioisotope labeling kinase assay (Eurofins), Flt3. The following applies: 1 μM compound; read-out: Inhibitory activity per unit concentration/Activity % Flt3 (h). As to the method:
as §1

For a further experiment, the target named is T3, Flt3 (D835Y) (h) (Homo sapiens, UniProt P36888, D835Y).
T3 construct: purchased Eurofins
T3 sequence (P36888 27-993 D835Y): T2 sequence (P36888 27-993) with D809Y
In words: Radioisotope labeling kinase assay (Eurofins), Flt3 (D835Y). Particulars: 1 μM compound; read-out: Inhibitory activity per unit concentration/Activity % Flt3 (D835Y) (h). As to the method: as §1

For the next experiment, the target named is T4, BTK (h) (Homo sapiens, UniProt Q06187).
T4 construct: purchased Eurofins
Kind of experiment: Radioisotope labeling kinase assay (Eurofins), BTK. Particulars: 1 μM compound; read-out: Inhibitory activity per unit concentration/Activity % BTK (h). The method, then: as §1

For a further experiment, the target named is T5, JAK3 (h) (Homo sapiens, UniProt P52333).
T5 construct: purchased Eurofins
T5 sequence (P52333 1-1124): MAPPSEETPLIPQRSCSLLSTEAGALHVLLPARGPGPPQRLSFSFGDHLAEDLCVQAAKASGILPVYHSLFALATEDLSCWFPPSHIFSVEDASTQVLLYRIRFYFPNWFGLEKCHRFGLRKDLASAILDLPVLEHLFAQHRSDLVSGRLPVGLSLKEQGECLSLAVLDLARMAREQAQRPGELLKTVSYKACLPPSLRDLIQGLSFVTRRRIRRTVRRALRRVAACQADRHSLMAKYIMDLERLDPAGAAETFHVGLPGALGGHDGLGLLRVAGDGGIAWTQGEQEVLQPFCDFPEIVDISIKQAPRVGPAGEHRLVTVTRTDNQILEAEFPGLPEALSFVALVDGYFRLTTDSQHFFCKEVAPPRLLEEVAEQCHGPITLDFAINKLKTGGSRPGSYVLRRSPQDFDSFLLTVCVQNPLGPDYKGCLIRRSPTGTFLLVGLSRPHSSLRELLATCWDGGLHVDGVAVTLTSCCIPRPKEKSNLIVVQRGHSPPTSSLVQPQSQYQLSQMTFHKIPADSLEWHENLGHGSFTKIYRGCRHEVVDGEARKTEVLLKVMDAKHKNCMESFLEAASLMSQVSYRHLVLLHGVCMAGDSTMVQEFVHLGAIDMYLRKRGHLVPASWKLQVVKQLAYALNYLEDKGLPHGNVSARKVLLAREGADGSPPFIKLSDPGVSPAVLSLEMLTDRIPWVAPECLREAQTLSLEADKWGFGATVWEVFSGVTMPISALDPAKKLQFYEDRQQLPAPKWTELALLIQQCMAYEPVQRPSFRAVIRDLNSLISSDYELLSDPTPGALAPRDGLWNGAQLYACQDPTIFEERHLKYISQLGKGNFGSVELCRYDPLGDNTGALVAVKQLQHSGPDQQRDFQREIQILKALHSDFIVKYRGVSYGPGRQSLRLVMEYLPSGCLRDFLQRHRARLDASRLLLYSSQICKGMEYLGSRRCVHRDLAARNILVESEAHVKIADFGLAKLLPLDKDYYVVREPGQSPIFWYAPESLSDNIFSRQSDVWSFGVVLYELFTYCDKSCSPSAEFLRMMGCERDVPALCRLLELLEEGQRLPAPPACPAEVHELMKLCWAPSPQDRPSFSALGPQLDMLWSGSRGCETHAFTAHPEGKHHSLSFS
In words: Radioisotope labeling kinase assay (Eurofins), JAK3. The following applies: 1 μM compound; read-out: Inhibitory activity per unit concentration/Activity % JAK3 (h). As to the method:
as §1

The values that follow come from patent US20240425518A1, “N-MACROCYCLIC AMIDE COMPOUNDS, PREPARATION METHODS THEREOF AND APPLICATIONS THEREOF AS MEDICAMENTS” (Chengdu FANXI Biopharma Co., Ltd., priority 2023, published 2024).

Residue numbers refer to the chain shown, from its start.

T4 sequence (Q06187 whole entry): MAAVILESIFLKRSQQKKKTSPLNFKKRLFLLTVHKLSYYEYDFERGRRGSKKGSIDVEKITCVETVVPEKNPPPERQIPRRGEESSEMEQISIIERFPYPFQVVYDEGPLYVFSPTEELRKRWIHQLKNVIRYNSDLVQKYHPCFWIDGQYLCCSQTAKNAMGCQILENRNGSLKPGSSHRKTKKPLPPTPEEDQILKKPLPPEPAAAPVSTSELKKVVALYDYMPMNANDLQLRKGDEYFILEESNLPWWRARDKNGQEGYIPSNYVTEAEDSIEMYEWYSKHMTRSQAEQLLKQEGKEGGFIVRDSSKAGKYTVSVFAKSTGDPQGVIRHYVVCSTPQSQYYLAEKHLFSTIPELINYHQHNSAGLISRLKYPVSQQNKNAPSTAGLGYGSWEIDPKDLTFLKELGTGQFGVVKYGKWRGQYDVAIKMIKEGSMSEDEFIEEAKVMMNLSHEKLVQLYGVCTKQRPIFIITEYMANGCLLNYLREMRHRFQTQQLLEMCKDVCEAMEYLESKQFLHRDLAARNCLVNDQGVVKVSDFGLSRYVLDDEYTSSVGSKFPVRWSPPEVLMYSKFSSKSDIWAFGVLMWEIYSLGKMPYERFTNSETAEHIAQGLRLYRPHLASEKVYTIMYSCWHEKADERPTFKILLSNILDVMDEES
T1 sequence (P00519 whole entry): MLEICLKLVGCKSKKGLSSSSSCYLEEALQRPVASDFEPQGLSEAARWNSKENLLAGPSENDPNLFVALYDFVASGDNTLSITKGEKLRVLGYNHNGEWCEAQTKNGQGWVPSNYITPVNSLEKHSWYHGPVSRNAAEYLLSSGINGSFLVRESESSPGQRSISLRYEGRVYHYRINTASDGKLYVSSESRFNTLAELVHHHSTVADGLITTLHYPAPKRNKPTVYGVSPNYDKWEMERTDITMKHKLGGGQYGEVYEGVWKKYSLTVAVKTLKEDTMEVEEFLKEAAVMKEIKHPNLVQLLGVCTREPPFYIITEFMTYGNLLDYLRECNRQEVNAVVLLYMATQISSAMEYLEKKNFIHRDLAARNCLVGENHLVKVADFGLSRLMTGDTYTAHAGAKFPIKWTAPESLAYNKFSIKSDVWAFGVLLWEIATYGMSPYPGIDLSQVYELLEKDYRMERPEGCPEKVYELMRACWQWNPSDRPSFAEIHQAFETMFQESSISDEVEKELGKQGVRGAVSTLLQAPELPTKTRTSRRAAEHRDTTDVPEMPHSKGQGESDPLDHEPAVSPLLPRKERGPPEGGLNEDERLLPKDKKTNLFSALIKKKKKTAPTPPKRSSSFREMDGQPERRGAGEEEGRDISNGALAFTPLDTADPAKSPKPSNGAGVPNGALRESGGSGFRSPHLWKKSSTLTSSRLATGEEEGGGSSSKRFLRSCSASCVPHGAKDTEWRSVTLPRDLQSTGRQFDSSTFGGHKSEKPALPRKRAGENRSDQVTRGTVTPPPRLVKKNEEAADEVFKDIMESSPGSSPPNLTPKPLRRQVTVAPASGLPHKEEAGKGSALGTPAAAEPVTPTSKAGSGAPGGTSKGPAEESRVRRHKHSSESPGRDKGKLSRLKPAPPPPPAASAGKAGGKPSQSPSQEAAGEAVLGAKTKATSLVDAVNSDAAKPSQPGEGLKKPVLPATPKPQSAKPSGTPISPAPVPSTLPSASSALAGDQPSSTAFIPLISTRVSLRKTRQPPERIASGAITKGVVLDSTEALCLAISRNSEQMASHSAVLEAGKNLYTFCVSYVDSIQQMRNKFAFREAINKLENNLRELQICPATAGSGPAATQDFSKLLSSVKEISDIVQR

In the case of `C1=C/COCc2cccc(c2)-c2ccnc(n2)Nc2cc(cc(OC/C=C/CN3CCOCC3)c2)COC/1` [XVI-16], the activity at 1 µM is 19% at Ab1 (h); 20% on Flt3 (h); -1% at Flt3 (D835Y) (h); 48% at BTK (h); 32% at JAK3 (h).
Consider `NC1CCN(C/C=C/C(=O)Nc2cc3cc(c2)Nc2nccc(n2)-c2cccc(c2)COC/C=C/COC3)C1` (centres unmarked) [XVI-17], for which the activity at 1 µM is -4% at Ab1 (h); 16% at Flt3 (h); 8% on Flt3 (D835Y) (h); 17% at BTK (h); 4% on JAK3 (h).
Turning to `C1=C/COCc2ccc(OC/C=C/CN3CCCC3)c(c2)Nc2nccc(n2)-c2cccc(c2)COC/1` [XVI-20], the activity at 1 µM at Ab1 (h) turned out to be 85%; at Flt3 (h), 91%; at Flt3 (D835Y) (h), 33%; at BTK (h), 90%; on JAK3 (h), 97%.
As for `CN1C/C=C/COCc2cccc(c2)-c2ccnc(n2)Nc2cc(cc(NC(=O)/C=C/c3ccc(C#N)cc3)c2)C1` [XVI-27], the activity at 1 µM on Ab1 (h) came out at 45%; at Flt3 (h) it was 8%; on Flt3 (D835Y) (h), 2%; on BTK (h) it was 77%; at JAK3 (h) it was 52%.
As for `O=C(/C=C/C(F)(F)F)Nc1cc2cc(c1)Nc1nccc(n1)-c1cccc(c1)COC/C=C/COC2` [XVI-5], the activity at 1 µM was determined as 57% at Ab1 (h); 17% at Flt3 (h); 7% at Flt3 (D835Y) (h); 88% on BTK (h); 75% at JAK3 (h).
Take `C1=C/COCc2ccc(OC/C=C/CN3CCOCC3)c(c2)Nc2nccc(n2)-c2cccc(c2)COC/1` [XVI-23]: the activity at 1 µM at Ab1 (h) was determined as 85%; on Flt3 (h) it was 78%; on Flt3 (D835Y) (h) it was 27%; on BTK (h) it was 90%; on JAK3 (h), 10%.
Consider `C=CC(=O)Nc1cc2cc(c1)Nc1nccc(n1)-c1cccc(c1)COC/C=C/CN(C)C2` [XVI-31], for which the activity at 1 µM on Ab1 (h) is 50%; at Flt3 (h), 7%; at Flt3 (D835Y) (h), 2%; on BTK (h) it was 86%; at JAK3 (h) it was 57%.
The matching figures for `CN1C/C=C/COCc2cccc(c2)-c2ccnc(n2)Nc2cc(N)cc(c2)C1` [XIII-2]: 57%, 7%, 1%, 71% and 77%.
Taken in the same sequence, the figures for `C1=C/COCc2ccc(O/C=C/CN3CCCC3)c(c2)Nc2nccc(n2)-c2cccc(c2)CCC/1` [XVI-34] were 98%, 125%, 79%, 87% and 87%.
Taken in the same sequence, the figures for `CCCC#CC(=O)Nc1cc2cc(c1)Nc1nccc(n1)-c1cccc(c1)COC/C=C/COC2` [XVII-2] were 13%, 5%, -1%, 36% and 36%.
For the compound `CN1C/C=C/COCc2cccc(c2)-c2ccnc(n2)Nc2cc(cc(NC(=O)/C=C/CN3CCOCC3)c2)C1` [XVI-30], the activity at 1 µM at Ab1 (h) worked out at 55%; on Flt3 (h) it was 7%; at Flt3 (D835Y) (h), 2%; at BTK (h) it was 66%; at JAK3 (h) it was 61%.
Consider `O=C(C#CCN1CCOCC1)Nc1cc2cc(c1)Nc1nccc(n1)-c1cccc(c1)COC/C=C/COC2` [XVII-3], for which the activity at 1 µM on Ab1 (h) amounted to 8%; on Flt3 (h), 2%; on Flt3 (D835Y) (h), 0%; on BTK (h), 17%; on JAK3 (h) it was 14%.
Consider `O=C(/C=C/COc1ccc2cc1Nc1nccc(n1)-c1cccc(c1)COC/C=C/COC2)N1CCCC1` [XVI-21], for which the activity at 1 µM was determined as 92% on Ab1 (h); 82% on Flt3 (h); 44% at Flt3 (D835Y) (h); 78% on BTK (h); 95% on JAK3 (h).
